Data reported in the Kinase Knowledgebase extract (Sharma et al. 2016).

Biological target: PIK3CG (human) (UniProt P48736)
Experiment: Assessment of PIK3CG Kinase Activity

PIK3CG (human), sequence (P48736 whole entry, looked up): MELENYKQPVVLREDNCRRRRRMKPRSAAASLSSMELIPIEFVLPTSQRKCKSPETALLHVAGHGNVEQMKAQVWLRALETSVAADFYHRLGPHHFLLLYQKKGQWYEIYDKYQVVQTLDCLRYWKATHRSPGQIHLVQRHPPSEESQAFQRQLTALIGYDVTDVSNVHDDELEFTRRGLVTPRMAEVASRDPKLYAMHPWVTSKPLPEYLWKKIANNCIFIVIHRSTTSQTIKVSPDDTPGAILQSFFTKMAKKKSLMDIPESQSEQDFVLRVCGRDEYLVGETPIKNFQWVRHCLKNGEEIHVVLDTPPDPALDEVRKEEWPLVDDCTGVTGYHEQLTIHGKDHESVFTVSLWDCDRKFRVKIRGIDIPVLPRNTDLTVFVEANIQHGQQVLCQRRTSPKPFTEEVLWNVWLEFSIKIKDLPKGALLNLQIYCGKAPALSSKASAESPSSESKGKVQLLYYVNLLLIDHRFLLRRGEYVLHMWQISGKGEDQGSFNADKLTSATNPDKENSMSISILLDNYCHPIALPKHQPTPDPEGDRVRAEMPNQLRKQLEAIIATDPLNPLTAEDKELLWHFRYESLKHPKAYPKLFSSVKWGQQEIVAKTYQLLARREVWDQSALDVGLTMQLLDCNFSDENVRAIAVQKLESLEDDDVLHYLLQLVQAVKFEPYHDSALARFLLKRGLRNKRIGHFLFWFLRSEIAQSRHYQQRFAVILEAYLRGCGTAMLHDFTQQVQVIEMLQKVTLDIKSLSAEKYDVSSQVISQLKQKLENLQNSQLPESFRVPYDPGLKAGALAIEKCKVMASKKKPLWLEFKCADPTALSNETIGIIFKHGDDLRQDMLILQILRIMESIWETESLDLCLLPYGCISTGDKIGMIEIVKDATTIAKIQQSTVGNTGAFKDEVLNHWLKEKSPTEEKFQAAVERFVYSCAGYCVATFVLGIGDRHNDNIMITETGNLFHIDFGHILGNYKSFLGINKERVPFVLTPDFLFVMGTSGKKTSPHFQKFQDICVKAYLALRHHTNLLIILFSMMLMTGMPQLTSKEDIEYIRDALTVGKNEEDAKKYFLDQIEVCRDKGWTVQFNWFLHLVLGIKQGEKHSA

Row | SMILES | IC50 [nM]
1 | CC(C)(C)OC(=O)NCCNC(=O)Nc1nc2c(s1)-c1c(c(-c3ccccc3)nn1-c1ccccc1Cl)CC2 | < 800
2 | CCn1cnc(CCNC(=O)Nc2nc3c(s2)-c2c(c(-c4cccnc4)nn2C2CCN(C4CCCC4)CC2)CC3)c1 | < 800
3 | CN(C)C(=O)CCNC(=O)Nc1nc2c(s1)-c1c(c(-c3cccnc3)nn1-c1ccccc1Cl)CC2 | < 800
4 | CCc1csc(CCNC(=O)Nc2nc3c(s2)-c2c(c(-c4cncnc4)nn2-c2ccccc2Cl)CC3)n1 | < 800
5 | CN1CCN(CCCNC(=O)Nc2nc3c(s2)-c2c(c(-c4cncnc4)nn2-c2ccccc2Cl)CC3)CC1 | < 800
6 | O=C(NCCc1cccc(C(F)(F)F)c1)Nc1nc2c(s1)-c1c(c(-c3cncnc3)nn1-c1ccccc1Cl)CC2 | < 800
7 | CCOC(=O)CCCNC(=O)Nc1nc2c(s1)-c1c(c(-c3ccccc3)nn1-c1ccccc1Cl)CC2 | < 800
8 | O=C(NCCCN1CCNC1=O)Nc1nc2c(s1)-c1c(c(-c3cccnc3)nn1-c1ccccc1Cl)CC2 | < 800
9 | O=C(Nc1nc2c(s1)-c1c(c(-c3cccnc3)nn1-c1ccccc1Cl)CC2)N1CCC(N2CCNC2=O)CC1 | < 800
10 | O=C(NCCc1cccnc1)Nc1nc2c(s1)-c1c(c(-c3cccnc3)nn1-c1ccccc1Cl)CC2 | < 800
11 | CC1CC(c2ccc(O)cc2)CN1C(=O)Nc1nc2c(s1)-c1c(c(-c3cccnc3)nn1-c1ccccc1Cl)CC2 (configuration not stated) | < 800
12 | C[C@H](NC(=O)Nc1nc2c(s1)-c1c(c(-c3ccccc3)nn1-c1ccccc1Cl)CC2)C(=O)N1CCOCC1 | < 800
13 | O=C(NCCN1CCNC1=O)Nc1nc2c(s1)-c1c(c(-c3cccnc3)nn1-c1ccccc1Cl)CC2 | < 800
14 | CC(C)(C)COC(=O)N1CCC[C@@H]1CNC(=O)Nc1nc2c(s1)-c1c(c(-c3cncnc3)nn1-c1ccccc1Cl)CC2 | < 800
15 | CC(C)OC(=O)N1CCC[C@@H]1CNC(=O)Nc1nc2c(s1)-c1c(c(-c3cncnc3)nn1-c1ccccc1Cl)CC2 | < 800
16 | O=C(NCCc1nc(C2CC2)no1)Nc1nc2c(s1)-c1c(c(-c3ccccc3)nn1-c1cccc(Cl)c1)CC2 | < 800
17 | CC(=O)N(C)c1cccc(CNC(=O)Nc2nc3c(s2)-c2c(c(-c4cncnc4)nn2-c2ccccc2Cl)CC3)c1 | < 800
18 | CN1CCC(CNC(=O)Nc2nc3c(s2)-c2c(c(-c4cccnc4)nn2-c2ccccc2Cl)CC3)CC1 | < 800
19 | CC(C)(C)OC(=O)N1CCC(C(=O)N2CCC[C@@H]2CNC(=O)Nc2nc3c(s2)-c2c(c(-c4cncnc4)nn2-c2ccccc2Cl)CC3)C1 (some centres not stated) | < 800

The next lines start with the values.

Row | IC50 [nM] | SMILES
20 | < 800 | C[C@@H](C(=O)N1CC[C@H](CNC(=O)Nc2nc3c(s2)-c2c(c(-c4cncnc4)nn2-c2ccccc2Cl)CC3)C1)N(C)C(=O)OC(C)(C)C
21 | < 800 | C[C@@H](NC(=O)Nc1nc2c(s1)-c1c(c(-c3ccccc3)nn1-c1ccccc1Cl)CC2)C(=O)N1CCN(C)CC1
22 | < 800 | O=C(NCc1ccccc1N1CCCCC1)Nc1nc2c(s1)-c1c(c(-c3cccnc3)nn1-c1ccccc1Cl)CC2
23 | < 800 | CC(C)(C)OC(=O)N1CCCCC1CNC(=O)Nc1nc2c(s1)-c1c(c(-c3cncnc3)nn1-c1ccccc1Cl)CC2 (configuration not stated)
24 | < 800 | CCCn1cnc(CCNC(=O)Nc2nc3c(s2)-c2c(c(-c4cncnc4)nn2-c2ccccc2Cl)CC3)c1
25 | < 800 | O=C(NCCc1ccccn1)Nc1nc2c(s1)-c1c(c(-c3cncnc3)nn1-c1ccccc1Cl)CC2
26 | < 800 | CCc1cccc(CNC(=O)Nc2nc3c(s2)-c2c(c(C4CC4)nn2-c2ccccc2Cl)CC3)c1
27 | < 800 | CN1CCC(n2nc(-c3cccnc3)c3c2-c2sc(NC(=O)NCc4cccc(NC(N)=O)c4)nc2CC3)CC1
